Laboratory results: patent US4036840A, “2-Substituted-s-triazolo[1,5a]pyrimidines” (ICN Pharmaceuticals, priority 1975, dated 1977)

How the values were obtained:
[1] = test system: 3',5'-Cyclic AMP phosphodiesterase (PDE) from lung; assay: 3',5'-Cyclic AMP phosphodiesterase (PDE) inhibition, rabbit lung enzyme (Fraction II, low Km); assay type: biochemical; conditions: relative to theophylline, cAMP about 1.7 × 10^-7 M, 30° C., 10 minutes, pH 7.5
[2] = test system: 3',5'-Cyclic AMP phosphodiesterase (PDE) from kidney; assay: 3',5'-Cyclic AMP phosphodiesterase (PDE) inhibition, rabbit kidney enzyme (Fraction II, low Km); assay type: biochemical; conditions: relative to theophylline, cAMP about 1.7 × 10^-7 M, 30° C., 10 minutes, pH 7.5

SMILES	PDE Lung; α (I50 theophylline / I50 compound) [1]	PDE Kidney; α (I50 theophylline / I50 compound) [2]
Cc1cc(C)n2nc(SCc3ccc(Cl)cc3)nc2n1 [Compound 4, 2-(p-chlorobenzylthio)-5,7-dimethyl-s-triazolo[1,5a]pyrimidine]	4.00	4.0
CCCSc1nc2nc(C)cc(C)n2n1 [Compound 7]	0.90	1.00
Cc1cc(C)n2nc(SC(C)C)nc2n1 [Compound 8]	0.10	1.30
CSc1nc2nc(C)cc(C)n2n1 [Compound 9]	0.50	0.25
Cc1cc(C)n2nc(SCC(C)C)nc2n1 [Compound 10]	0.10	0.50
CCOC(=O)C(Sc1nc2nc(C)cc(C)n2n1)C(=O)OCC [Compound 11]	0.50	0.00
Cc1cc(C)n2nc(SCc3ccc(C(=O)O)cc3)nc2n1 [Compound 12]	1.20	0.70
Cc1ccc(CSc2nc3nc(C)cc(C)n3n2)cc1 [Compound 13]	6.20	1.00
Cc1cccc(CSc2nc3nc(C)cc(C)n3n2)c1 [Compound 14]	2.00	0.70
Cc1cc(C)n2nc(SCc3ccccc3C)nc2n1 [Compound 15]	3.50	4.00
Cc1cc(C)n2nc(SCc3ccncc3)nc2n1 [Compound 18]	0.80	0.70
Cc1cc(C)n2nc(SCc3cccnc3)nc2n1 [Compound 19]	1.17	0.00
Cc1cc(C)n2nc(SCc3ccc4ccccc4n3)nc2n1 [Compound 20]	2.00	0.70
CCOC(=O)c1ccc(CSc2nc3nc(C)cc(C)n3n2)o1 [Compound 21]	3.2	1.25
Cc1cc(C)n2nc(SCC3CCCO3)nc2n1 (stereo not drawn) [Compound 22]	0.60	0.00
Cc1cc(C)n2nc(SCCc3ccccc3)nc2n1 [Compound 23]	2.50	2.50
Cc1cc(Cl)n2nc(SCc3ccccc3)nc2n1 [Compound 25, 2-benzylthio-7-chloro-5-methyl-s-triazolo[1,5a]pyrimidine]	4.00	1.40
CCCNc1cc(C)nc2nc(SCc3ccccc3)nn12 [Compound 26]	2.00	0.90
Cc1cc(N(C)C)n2nc(SCc3ccccc3)nc2n1 [Compound 28]	8.00	3.40
Cc1cc(N2CCCCC2)n2nc(SCc3ccccc3)nc2n1 [Compound 30]	10.0	3.20
Cc1cc(N2CCOCC2)n2nc(SCc3ccccc3)nc2n1 [Compound 31]	7.70	4.80
Cc1cc(NN(C)C)n2nc(SCc3ccccc3)nc2n1 [Compound 33]	5.30	8.00
CCOC(=O)c1cnc2nc(SCc3ccccc3)nn2c1O [Compound 34, 2-benzylthio-6-carbethoxy-7-hydroxy-s-triazolo [1,5a]pyrimidine]	0.00	0.00
CCOC(=O)c1cnc2nc(SCc3ccccc3)nn2c1N1CCOCC1 [Compound 36]	6.90	2.90
